Experimental data published in article PMC6812009, “Covalent Aurora A regulation by the metabolic integrator coenzyme A” (Redox Biology, 2019).

Tests used:
Experiment in all cases: Kinase profiling screen (radioactive filter-binding assay)
Format in all cases: biochemical
TTK = target: T1, TTK (Homo sapiens, UniProt P33981); conditions: 100 μM compound, 20 μM ATP; read-out: Kinase activity, % of activity in the absence of inhibitor
T1 sequence (P33981 1-857): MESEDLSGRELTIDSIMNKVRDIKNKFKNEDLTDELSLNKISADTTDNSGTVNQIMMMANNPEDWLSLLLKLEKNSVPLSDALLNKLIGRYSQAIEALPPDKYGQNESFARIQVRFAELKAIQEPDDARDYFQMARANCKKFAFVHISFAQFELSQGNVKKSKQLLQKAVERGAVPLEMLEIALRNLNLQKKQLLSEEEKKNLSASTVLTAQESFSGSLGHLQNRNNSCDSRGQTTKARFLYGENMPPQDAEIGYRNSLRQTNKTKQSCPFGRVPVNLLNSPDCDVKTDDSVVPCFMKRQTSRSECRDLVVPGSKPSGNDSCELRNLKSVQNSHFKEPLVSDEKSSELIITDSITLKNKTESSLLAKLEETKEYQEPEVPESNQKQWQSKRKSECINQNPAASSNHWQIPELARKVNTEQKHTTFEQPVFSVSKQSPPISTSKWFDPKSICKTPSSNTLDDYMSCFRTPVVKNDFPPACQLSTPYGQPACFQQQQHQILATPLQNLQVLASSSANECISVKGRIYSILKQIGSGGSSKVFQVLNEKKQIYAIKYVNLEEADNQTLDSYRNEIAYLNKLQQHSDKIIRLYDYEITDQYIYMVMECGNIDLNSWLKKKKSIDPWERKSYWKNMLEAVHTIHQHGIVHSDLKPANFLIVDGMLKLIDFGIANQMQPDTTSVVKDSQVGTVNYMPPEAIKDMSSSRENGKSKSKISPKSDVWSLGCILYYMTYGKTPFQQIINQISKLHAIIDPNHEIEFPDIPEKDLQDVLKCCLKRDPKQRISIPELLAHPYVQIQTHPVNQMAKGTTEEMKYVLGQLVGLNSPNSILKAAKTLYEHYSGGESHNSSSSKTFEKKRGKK
Outline: (§1)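 Across 117 protein kinases, duplicate in vitro measurements were made with CoA, dpCoA and ADP present at 100 μM final. Each reaction used recombinant kinase, a model substrate and an optimal concentration of ATP.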

IKKβ = target: T2, IKKβ (Homo sapiens, UniProt O14920); conditions: 100 μM compound, 5 μM ATP; read-out: Kinase activity, % of activity in the absence of inhibitor
T2 sequence (O14920 1-756): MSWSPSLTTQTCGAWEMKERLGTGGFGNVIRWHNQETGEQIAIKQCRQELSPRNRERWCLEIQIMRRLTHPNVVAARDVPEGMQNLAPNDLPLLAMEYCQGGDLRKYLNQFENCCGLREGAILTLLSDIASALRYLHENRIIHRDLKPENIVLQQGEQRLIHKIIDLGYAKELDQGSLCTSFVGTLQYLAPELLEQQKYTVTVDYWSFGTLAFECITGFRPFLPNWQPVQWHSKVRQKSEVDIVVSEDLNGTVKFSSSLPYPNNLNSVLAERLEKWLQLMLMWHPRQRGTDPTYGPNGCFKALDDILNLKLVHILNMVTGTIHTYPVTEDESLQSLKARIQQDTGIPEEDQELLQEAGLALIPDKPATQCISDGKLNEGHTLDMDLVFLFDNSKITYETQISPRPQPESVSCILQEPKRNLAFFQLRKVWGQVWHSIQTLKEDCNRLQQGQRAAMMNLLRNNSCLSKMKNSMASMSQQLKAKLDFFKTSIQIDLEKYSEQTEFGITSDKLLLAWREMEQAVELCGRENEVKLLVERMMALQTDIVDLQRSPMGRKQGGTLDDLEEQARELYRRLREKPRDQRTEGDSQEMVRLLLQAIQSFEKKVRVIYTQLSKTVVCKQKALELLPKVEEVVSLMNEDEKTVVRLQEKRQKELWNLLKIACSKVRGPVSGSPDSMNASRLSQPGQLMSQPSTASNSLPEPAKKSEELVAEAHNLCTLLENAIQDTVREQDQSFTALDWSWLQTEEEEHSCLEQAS
Outline: as §1

SYK = SYK (Homo sapiens, UniProt P43405); conditions: 100 μM compound, 20 μM ATP; read-out: Kinase activity, % of activity in the absence of inhibitor
Outline: as §1

CK2α = CK2α (Homo sapiens, UniProt P68400); conditions: 100 μM compound, 5 μM ATP; read-out: Kinase activity, % of activity in the absence of inhibitor
Sequence of CK2α (P68400 whole entry): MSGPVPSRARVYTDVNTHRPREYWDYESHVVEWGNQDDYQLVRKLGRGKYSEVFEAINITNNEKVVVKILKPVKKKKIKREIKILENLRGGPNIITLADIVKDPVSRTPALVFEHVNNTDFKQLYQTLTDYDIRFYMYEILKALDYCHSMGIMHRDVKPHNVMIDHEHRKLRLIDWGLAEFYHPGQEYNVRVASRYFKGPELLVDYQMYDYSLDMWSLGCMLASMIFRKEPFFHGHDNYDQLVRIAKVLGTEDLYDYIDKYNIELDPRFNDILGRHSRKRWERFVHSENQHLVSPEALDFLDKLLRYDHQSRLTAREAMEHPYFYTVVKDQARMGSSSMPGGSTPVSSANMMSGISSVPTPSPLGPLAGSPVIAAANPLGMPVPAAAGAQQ
Outline: as §1

HIPK2 = HIPK2 (Homo sapiens, UniProt Q9H2X6); conditions: 100 μM compound, 5 μM ATP; read-out: Kinase activity, % of activity in the absence of inhibitor
Sequence of HIPK2 (Q9H2X6 whole entry): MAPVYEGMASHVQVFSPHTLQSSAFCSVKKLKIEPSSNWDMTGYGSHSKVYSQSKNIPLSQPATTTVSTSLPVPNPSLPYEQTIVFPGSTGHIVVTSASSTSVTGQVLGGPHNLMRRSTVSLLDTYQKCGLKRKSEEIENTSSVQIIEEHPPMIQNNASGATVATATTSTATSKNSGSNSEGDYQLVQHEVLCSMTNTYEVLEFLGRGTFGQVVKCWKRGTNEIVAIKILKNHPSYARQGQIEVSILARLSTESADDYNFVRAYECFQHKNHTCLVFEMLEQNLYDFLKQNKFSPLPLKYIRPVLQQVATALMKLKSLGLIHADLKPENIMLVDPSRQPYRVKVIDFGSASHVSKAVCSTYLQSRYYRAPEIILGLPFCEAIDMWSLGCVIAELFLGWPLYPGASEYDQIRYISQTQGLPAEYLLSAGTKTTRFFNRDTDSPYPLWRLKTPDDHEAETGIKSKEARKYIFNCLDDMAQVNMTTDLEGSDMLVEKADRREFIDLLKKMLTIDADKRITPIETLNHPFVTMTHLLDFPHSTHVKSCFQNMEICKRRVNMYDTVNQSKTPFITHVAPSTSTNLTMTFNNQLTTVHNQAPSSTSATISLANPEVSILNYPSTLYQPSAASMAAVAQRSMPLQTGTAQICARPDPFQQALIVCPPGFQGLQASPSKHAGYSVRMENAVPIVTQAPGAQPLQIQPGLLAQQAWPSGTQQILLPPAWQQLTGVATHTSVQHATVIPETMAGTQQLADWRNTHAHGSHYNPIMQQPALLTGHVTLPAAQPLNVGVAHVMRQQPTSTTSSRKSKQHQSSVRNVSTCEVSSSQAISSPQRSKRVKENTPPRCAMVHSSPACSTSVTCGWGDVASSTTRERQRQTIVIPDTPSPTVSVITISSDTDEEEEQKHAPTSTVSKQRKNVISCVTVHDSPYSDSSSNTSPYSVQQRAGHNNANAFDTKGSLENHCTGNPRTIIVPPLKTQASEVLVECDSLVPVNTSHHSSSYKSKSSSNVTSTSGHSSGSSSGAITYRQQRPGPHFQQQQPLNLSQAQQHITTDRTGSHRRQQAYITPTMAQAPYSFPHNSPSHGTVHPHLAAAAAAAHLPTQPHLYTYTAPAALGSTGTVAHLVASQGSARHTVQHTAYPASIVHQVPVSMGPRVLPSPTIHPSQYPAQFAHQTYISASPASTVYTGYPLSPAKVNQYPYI
Outline: as §1

MSK1 = MSK1 (Homo sapiens, UniProt O75582); conditions: 100 μM compound, 20 μM ATP; read-out: Kinase activity, % of activity in the absence of inhibitor
Sequence of MSK1 (O75582 whole entry): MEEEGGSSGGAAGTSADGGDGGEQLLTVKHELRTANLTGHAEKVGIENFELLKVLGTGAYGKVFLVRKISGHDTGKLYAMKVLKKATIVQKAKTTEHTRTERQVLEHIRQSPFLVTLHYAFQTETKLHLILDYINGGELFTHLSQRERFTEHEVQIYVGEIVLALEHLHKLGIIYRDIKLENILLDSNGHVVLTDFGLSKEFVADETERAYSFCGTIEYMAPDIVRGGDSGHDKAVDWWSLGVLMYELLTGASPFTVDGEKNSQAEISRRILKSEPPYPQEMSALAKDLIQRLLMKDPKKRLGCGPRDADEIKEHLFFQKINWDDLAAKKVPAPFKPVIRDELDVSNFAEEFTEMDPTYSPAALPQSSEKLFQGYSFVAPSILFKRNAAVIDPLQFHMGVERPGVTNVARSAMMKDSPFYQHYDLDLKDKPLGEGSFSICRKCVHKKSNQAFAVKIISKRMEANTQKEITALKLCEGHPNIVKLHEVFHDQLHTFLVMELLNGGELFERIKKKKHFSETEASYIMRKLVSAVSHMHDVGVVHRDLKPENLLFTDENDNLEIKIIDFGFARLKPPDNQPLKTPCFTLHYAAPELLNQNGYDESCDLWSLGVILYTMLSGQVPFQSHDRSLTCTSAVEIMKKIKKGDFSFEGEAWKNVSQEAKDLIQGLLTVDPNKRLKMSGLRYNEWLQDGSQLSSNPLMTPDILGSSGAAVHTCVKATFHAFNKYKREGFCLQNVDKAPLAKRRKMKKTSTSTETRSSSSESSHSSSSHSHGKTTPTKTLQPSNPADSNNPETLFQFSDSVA
Outline: as §1

PAK2 = PAK2 (Homo sapiens, UniProt Q13177); conditions: 100 μM compound, 20 μM ATP; read-out: Kinase activity, % of activity in the absence of inhibitor
Sequence of PAK2 (Q13177 whole entry): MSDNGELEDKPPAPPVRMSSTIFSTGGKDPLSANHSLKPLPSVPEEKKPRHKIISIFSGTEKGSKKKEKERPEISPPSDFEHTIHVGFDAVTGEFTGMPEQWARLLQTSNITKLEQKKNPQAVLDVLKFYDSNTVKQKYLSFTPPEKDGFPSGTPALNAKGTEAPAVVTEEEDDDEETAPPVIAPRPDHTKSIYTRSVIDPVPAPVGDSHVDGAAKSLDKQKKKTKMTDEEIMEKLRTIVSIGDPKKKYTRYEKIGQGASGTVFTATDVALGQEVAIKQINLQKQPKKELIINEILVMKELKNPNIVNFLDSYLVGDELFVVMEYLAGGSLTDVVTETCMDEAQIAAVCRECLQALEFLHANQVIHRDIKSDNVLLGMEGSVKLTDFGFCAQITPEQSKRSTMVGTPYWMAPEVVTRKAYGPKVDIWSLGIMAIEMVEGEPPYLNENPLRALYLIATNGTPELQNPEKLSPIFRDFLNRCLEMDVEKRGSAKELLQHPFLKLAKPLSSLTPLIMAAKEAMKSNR
Outline: as §1

Q: Which activity at 100 µM (TTK) does the source give for `CC(C)(COP(=O)(O)OP(=O)(O)OC[C@H]1O[C@@H](n2cnc3c(N)ncnc32)[C@H](O)[C@@H]1OP(=O)(O)O)[C@@H](O)C(=O)NCCC(=O)NCCS` [CoA, Coenzyme A] here?
A: The activity at 100 µM was 101%.

Q: And the activity at 100 µM (IKKβ)?
A: The activity at 100 µM was 90.5%.

Q: What about the activity at 100 µM (SYK) of the same compound?
A: Its activity at 100 µM is 98.3%.

Q: And the activity at 100 µM (CK2α)?
A: The activity at 100 µM was 80.1%.

Q: And the activity at 100 µM (HIPK2)?
A: The activity at 100 µM was 153%.

Q: What about the activity at 100 µM (MSK1) of the same compound?
A: The activity at 100 µM was 106%.

Q: And the activity at 100 µM (PAK2)?
A: Its activity at 100 µM is 88.8%.

Q: With `CC(C)(COP(=O)(O)OP(=O)(O)OCC1OC(n2cnc3c(N)ncnc32)C(O)C1O)C(O)C(=O)NCCC(=O)NCCS` (stereo not drawn) [dpCoA, dephospho-CoA] as the compound, how does the activity at 100 µM (TTK) read?
A: The activity at 100 µM was 75.8%.

Q: What about the activity at 100 µM (IKKβ) of the same compound?
A: Its activity at 100 µM is 48%.

Q: What about the activity at 100 µM (SYK) of the same compound?
A: Its activity at 100 µM is 106%.

Q: What about the activity at 100 µM (CK2α) of the same compound?
A: The activity at 100 µM was 39.8%.

Q: What about the activity at 100 µM (HIPK2) of the same compound?
A: The activity at 100 µM was 73.4%.

Q: And the activity at 100 µM (MSK1)?
A: The activity at 100 µM was 70.5%.

Q: What about the activity at 100 µM (PAK2) of the same compound?
A: Its activity at 100 µM is 112%.

Q: How did the activity at 100 µM (TTK) turn out when `Nc1ncnc2c1ncn2C1OC(COP(=O)(O)OP(=O)(O)O)C(O)C1O` (stereo not drawn) [ADP] was run?
A: The activity at 100 µM was 54.7%.

Q: And the activity at 100 µM (IKKβ)?
A: The activity at 100 µM was 26.6%.

Q: What about the activity at 100 µM (SYK) of the same compound?
A: Its activity at 100 µM is 70.9%.

Q: What about the activity at 100 µM (CK2α) of the same compound?
A: Its activity at 100 µM is 5.4%.

Q: And the activity at 100 µM (HIPK2)?
A: The activity at 100 µM was 16.5%.

Q: And the activity at 100 µM (MSK1)?
A: The activity at 100 µM was 53.3%.

Q: And the activity at 100 µM (PAK2)?
A: Its activity at 100 µM is 90.3%.
